Assay results reported in ChEMBL document CHEMBL6153156, “Potential of Histone Deacetylase 6 Inhibitors as a Treatment of Neurodegenerative Diseases” (ACS Med Chem Lett, 2025).

Target: T1, Protein deacetylase HDAC6 (Homo sapiens) (UniProt Q9UBN7)
T1 sequence (whole entry): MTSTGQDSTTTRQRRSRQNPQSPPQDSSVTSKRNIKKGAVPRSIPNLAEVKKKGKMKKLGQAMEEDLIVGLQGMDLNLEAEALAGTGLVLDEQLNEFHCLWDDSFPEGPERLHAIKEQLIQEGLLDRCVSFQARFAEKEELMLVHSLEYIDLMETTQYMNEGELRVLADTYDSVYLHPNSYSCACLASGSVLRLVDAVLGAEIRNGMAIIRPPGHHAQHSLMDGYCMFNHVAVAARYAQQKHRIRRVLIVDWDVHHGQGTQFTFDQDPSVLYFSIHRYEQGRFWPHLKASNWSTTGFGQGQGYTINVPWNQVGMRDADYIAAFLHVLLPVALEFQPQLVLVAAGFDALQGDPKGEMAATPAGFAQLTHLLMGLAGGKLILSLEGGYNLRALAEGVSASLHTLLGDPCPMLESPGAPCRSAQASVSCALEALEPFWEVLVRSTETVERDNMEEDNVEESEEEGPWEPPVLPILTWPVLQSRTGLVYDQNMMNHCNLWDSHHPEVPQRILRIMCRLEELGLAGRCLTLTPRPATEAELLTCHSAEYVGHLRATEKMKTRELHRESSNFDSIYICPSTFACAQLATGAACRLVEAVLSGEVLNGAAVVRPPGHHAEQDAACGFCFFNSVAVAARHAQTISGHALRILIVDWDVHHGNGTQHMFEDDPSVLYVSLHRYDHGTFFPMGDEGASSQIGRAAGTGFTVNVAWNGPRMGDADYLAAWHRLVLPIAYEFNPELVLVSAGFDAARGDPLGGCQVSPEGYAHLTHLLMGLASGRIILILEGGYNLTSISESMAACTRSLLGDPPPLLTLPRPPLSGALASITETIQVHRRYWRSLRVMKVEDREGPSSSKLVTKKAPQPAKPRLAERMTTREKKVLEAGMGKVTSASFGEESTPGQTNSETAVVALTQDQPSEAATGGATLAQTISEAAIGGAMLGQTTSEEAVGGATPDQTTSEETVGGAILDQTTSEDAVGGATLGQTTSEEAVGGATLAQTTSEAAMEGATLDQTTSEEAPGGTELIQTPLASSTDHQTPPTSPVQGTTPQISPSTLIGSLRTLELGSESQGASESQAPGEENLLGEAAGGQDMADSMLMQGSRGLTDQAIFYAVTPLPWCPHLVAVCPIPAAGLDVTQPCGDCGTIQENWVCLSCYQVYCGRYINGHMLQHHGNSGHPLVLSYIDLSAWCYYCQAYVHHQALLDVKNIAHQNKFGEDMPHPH
Experiment: Inhibition of full length HDAC6 (unknown origin) extracted from Sf9 insect cells at 10 uM preincubated for 60 mins followed by substrate addition and measured after 20 mins by luminescence based HDAC-GloTM I/II assay relative to control
Type: cell-free
Details: time 80.0 min

Compound	inhibition
O=C1c2cc(-c3nnc(C(F)F)o3)ccc2CN1[C@H](c1cccc(F)c1)[C@@H](O)c1ccccn1 (racemic)	100%
O=C1c2cc(-c3nnc(C(F)F)o3)ccc2CN1[C@H](c1ccc(F)c(F)c1)[C@@H](O)c1ccccn1	99%
O=C1c2cc(-c3nnc(C(F)F)o3)ccc2CN1[C@H](C1CC1)[C@@H](O)c1ncccn1	96%
O=C1c2cc(-c3nnc(C(F)F)o3)ccc2CN1[C@H](c1cccnn1)[C@@H](O)c1cccc(Cl)c1	101%
O=C1c2cc(-c3nnc(C(F)F)o3)ccc2CN1[C@@H](c1ccccn1)[C@H](O)c1ccccn1	100%
O=C1c2cc(-c3nnc(C(F)F)o3)ccc2CN1[C@H](c1cnccn1)[C@@H](O)c1cccc(Cl)c1	100%

Further lines, results first:

inhibition	Compound
99%	O=C1c2cc(-c3nnc(C(F)F)o3)ccc2CN1[C@H](c1ccccn1)[C@@H](O)c1ccc(C(F)(F)F)cn1
100%	O=C1c2cc(-c3nnc(C(F)F)o3)ccc2CN1[C@H](C1CC1)[C@@H](O)c1cccc(F)c1
100%	O=C1c2cc(-c3nnc(C(F)F)o3)ccc2CN1[C@H](C1CC1)[C@@H](O)c1ccccn1
99%	O=C1c2cc(-c3nnc(C(F)F)o3)ccc2CN1[C@H](c1ccc(F)cc1)[C@@H](O)C1CCOCC1 (racemic)
100%	O=C1c2cc(-c3nnc(C(F)F)o3)ccc2CN1[C@H](C1CCC(F)(F)CC1)[C@@H](O)c1ccc(F)nc1 (racemic)
99%	O=C1c2cc(-c3nnc(C(F)F)o3)ccc2CN1[C@H](c1ccc(F)cc1)[C@@H](O)c1ccc(F)nc1
101%	O=C1c2cc(-c3nnc(C(F)F)o3)ccc2CN1[C@H](c1ccccn1)[C@@H](O)c1ccccn1
100%	O=C1c2cc(-c3nnc(C(F)F)o3)ccc2CN1[C@H](C1CC1)[C@@H](O)c1ccc(F)cn1
